The values that follow come from publication doi:10.1101/2024.12.23.630153v1 (biorxiv, 2024).

For test [1], the target named is T1, OXA-57 (Burkholderia pseudomallei, UniProt Q6ZZZ2). The experiment in a line: biochemical.
The target in test [2] is T1, OXA-57.
For test [3], the target named is T1, OXA-57. Put plainly: biochemical. The settings on record: pIC50.

Read-outs that look alike come from different tables or passages of the source.

T1 sequence (Q6ZZZ2 24-269 limits assumed): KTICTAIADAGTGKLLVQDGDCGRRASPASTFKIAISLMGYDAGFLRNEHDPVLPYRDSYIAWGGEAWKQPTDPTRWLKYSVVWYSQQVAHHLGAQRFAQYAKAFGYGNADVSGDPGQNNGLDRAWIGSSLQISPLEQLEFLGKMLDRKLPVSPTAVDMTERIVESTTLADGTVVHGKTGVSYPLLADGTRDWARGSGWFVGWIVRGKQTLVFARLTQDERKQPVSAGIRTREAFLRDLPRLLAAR

Consider `C[C@H]1[C@H](NC(=O)/C(=N\OC(C)(C)C(=O)O)c2csc(N)n2)C(=O)N1S(=O)(=O)O` [Aztreonam], for which the IC50 at OXA-57 [1] was greater than 3980 µM.
The same measure, in the same setting: the same measure for `CO/N=C(\C(=O)N[C@@H]1C(=O)N2C(C(=O)O)=C(COC(C)=O)CS[C@H]12)c1csc(N)n1` [Cefotaxime]: greater than 3980 µM; for `CC(C)(O/N=C(\C(=O)N[C@@H]1C(=O)N2C(C(=O)[O-])=C(C[n+]3ccccc3)CS[C@H]12)c1csc(N)n1)C(=O)O` [Ceftazidime]: greater than 3980 µM.
At OXA-57 [2], `CC(=O)OCC1=C(C(=O)O)N2C(=O)[C@@H](NC(=O)Cc3cccs3)[C@H]2SC1` [Cephalothin] gave a Ki of 405 ± 97 µM.
As for `O=C(O)[C@H]1/C(=C/CO)O[C@@H]2CC(=O)N21` [Clavulanate], the results for the IC50 at OXA-57 [3] and at OXA-57 [1] were 12.6 µM and 9.4 µM, respectively.
Regarding `C[C@@H](O)[C@H]1C(=O)N2C(C(=O)O)=C(SCCN=CN)C[C@H]12` [Imipenem], the Ki on OXA-57 [2] came to 265 ± 79 µM.
On the same count and under the same terms, the same measure for `C[C@@H](O)[C@H]1C(=O)N2C(C(=O)O)=C(S[C@@H]3CN[C@H](C(=O)N(C)C)C3)[C@H](C)[C@H]12` [Meropenem]: 646 ± 355 µM.
Compound `O=C(O)C[C@@H]1CC[C@H](NC(=O)Cc2cccs2)B(O)O1` [Vaborbactam] yielded an IC50 on OXA-57 [1] greater than 3980 µM.
